Values quoted from earlier work, collected in patent US11654095B2, “Method for dyeing keratinous material, comprising the use of an organosilicon compound, a chromophoric compound, a modified fatty acid ester and a sealing reagent II” (Henkel AG & Co. KGaA, priority 2019, dated 2023).
Where two headings read alike, the source gives them in different places.

solubility in water (water at 25° C.) | Compound | solubility in water (25° C.)
 | O=S(=O)([O-])c1ccc(N=Nc2c(O)ccc3ccccc23)cc1.[Na+] [Acid Orange 7, sodium salt of 4-[(2-hydroxy-1-naphthyl)azo]benzene sulphonate] | more than 7 g/L
 | Nc1cc(S(=O)(=O)[O-])cc2cc(S(=O)(=O)[O-])c(N=Nc3ccccc3)c(O)c12.[Na+].[Na+] [Acid Red 33, disodium salt of 5-amino-4-hydroxy-3-(phenylazo)-naphthalene-2,7-disulphonate] | 2500 µg/mL
 | O=C([O-])c1c(Cl)c(Cl)c(Cl)c(Cl)c1-c1c2c(Br)cc(=O)c(Br)c-2oc2c(Br)c(O)cc(Br)c12.O=C([O-])c1c(Cl)c(Cl)c(Cl)c(Cl)c1-c1c2c(Br)cc(=O)c(Br)c-2oc2c(Br)c(O)cc(Br)c12.[Na+].[Na+] [Acid Red 92, disodium salt of 3,4,5,6-tetrachloro-2-(1,4,5,8-tetrabromo-6-hydroxy-3-oxoxanthen-9-yl)benzoic acid] | greater than 10 g/L
highly soluble | O=C([O-])C1=NN(c2ccc(S(=O)(=O)[O-])cc2)C(=O)C1N=Nc1ccc(S(=O)(=O)[O-])cc1.[Na+].[Na+].[Na+] (stereo not shown) [Acid Yellow 23, trisodium salt of 4,5-dihydro-5-oxo-1-(4-sulfophenyl)-4-((4-sulfophenyl)azo)-1H-pyrazole-3-carboxylic acid] | 
